Test results published in patent publication US11236046B2, “Substituted heterocyclic sulfonamide compounds useful as TRPA1 modulators” (Genentech, Inc., priority 2013, dated 2022).

Biological target: human TRPA1 (Homo sapiens (Human), UniProt O75762)
Test: FLIPR Tetra calcium influx assay, block of cinnamaldehyde-induced calcium influx in CHO cells expressing TRPA1 (human)
Assay type: cell-based
Details: 20 min compound incubation, 75 uM cinnamaldehyde (~EC80), Hill coefficient fixed to 1.5, read-out: hTRPA1 AUC IC50
Procedure: IC50 Determinations of Exemplified Compounds.
IC50s (effective concentration) of compounds on the human and rat TRPA1 channels were determined using a FLIPR Tetra instrument. CHO cells expressing TRPA1 were plated into 384-well plates, incubated overnight at 37C, and loaded with BD calcium indicator dye for 1 hr at 37° C. followed by 15 minutes. at room temperature. The assay buffer was Hank's Balanced Salt Solution (HBSS) containing 20 mM HEPES (pH readjusted to 7.4) along with 0.02% BSA.
Following dye load and plate cool down, compounds were added to the cells using FLIPR Tetra. Plates were then incubated with compounds for 20 minutes at room temperature prior to adding agonist. Following this incubation, ˜EC80 concentration of cinnamaldehyde (75 uM for human TRPA1 and 45 uM for rat TRPA1) was added to active the channels and block of cinnamaldehyde induced calcium influx was measured.
Fixing the Hill coefficient will generally reduce variability of the IC50 determination. The IC50s were individually examined to make sure the MIN and MAX points were set correctly prior to validation of the results.

Chain of human TRPA1 (O75762 whole entry): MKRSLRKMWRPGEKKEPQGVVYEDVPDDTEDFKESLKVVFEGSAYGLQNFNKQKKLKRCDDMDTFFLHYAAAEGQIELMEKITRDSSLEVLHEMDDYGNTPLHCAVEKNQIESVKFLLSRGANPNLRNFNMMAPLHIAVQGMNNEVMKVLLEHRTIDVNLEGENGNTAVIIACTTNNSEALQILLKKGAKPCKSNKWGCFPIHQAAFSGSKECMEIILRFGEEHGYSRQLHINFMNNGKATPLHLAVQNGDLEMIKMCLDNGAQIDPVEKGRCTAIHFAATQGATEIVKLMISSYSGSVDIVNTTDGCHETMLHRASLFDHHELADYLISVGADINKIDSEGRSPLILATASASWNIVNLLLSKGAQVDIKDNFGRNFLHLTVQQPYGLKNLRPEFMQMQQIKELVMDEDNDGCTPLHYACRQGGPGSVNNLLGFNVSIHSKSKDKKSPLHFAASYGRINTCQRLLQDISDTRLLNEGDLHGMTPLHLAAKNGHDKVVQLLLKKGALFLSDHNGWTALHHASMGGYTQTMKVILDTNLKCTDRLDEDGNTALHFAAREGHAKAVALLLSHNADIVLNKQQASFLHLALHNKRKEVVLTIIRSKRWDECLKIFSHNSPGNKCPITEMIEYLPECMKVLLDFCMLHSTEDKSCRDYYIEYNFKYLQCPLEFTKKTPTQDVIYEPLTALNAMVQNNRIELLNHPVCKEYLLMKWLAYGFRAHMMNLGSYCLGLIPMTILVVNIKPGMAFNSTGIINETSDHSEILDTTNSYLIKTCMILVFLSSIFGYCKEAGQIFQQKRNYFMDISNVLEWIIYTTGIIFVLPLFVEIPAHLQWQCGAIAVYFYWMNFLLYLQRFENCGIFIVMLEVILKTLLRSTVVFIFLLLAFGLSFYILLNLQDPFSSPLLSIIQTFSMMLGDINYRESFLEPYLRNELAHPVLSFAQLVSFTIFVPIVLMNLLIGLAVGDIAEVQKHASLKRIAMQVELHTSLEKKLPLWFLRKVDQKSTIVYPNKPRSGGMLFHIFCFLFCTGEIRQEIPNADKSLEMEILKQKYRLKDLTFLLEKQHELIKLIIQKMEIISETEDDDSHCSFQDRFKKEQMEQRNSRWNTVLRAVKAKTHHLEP

Compound | IC50 [nM]
O=C(NCc1cc(-c2ccc(OC(F)F)cc2)c(F)cn1)[C@@H]1C[C@@H](F)CN1S(=O)(=O)c1ccc(F)cc1 [Example 77, (2S,4R)—N-([4-[4-(difluoromethoxy)phenyl]-5-fluoropyridin-2-yl]methyl)-4-fluoro-1-[(4-fluorobenzene)sulfonyl]pyrrolidine-2-carboxamide] | 53
N#Cc1cc(CNC(=O)[C@@H]2C[C@@H](F)CN2S(=O)(=O)c2ccc(F)cc2)cc(-c2ccc(C(F)(F)F)nc2)c1 [Example 112, (2S,4R)—N-[[3-cyano-5-[6-(trifluoromethyl)-3-pyridyl]phenyl]methyl]-4-fluoro-1-(4-fluorophenyl)sulfonyl-pyrrolidine-2-carboxamide] | 48
N#Cc1cnc(CNC(=O)[C@@H]2C[C@@H](F)CN2S(=O)(=O)c2ccc(F)cc2)cc1-c1ccc(C(F)(F)F)nc1 [Example 71, (2S,4R)—N-[[5-cyano-4-[6-(trifluoromethyl)-3-pyridyl]-2-pyridyl]methyl]-4-fluoro-1-(4-fluorophenyl)sulfonyl-pyrrolidine-2-carboxamide] | 176
O=C(NCc1cc(Cl)nc(-c2cnc(C(F)(F)F)nc2)c1)[C@@H]1C[C@@H](F)CN1S(=O)(=O)c1ccc(F)cc1 [Example 62, (2S,4R)—N-[[2-chloro-6-[2-(trifluoromethyl)pyrimidin-5-yl]-4-pyridyl]methyl]-4-fluoro-1-(4-fluorophenyl)sulfonyl-pyrrolidine-2-carboxamide] | 14
N#Cc1cnc(-c2ccc(C(F)(F)F)nc2)cc1CNC(=O)[C@@H]1[C@@H](F)CCN1S(=O)(=O)c1ccc(F)cc1 [Example 166, (2R,3S)—N-([5-cyano-2-[6-(trifluoromethyl)pyridin-3-yl]pyridin-4-yl]methyl)-3-fluoro-1-[(4-fluorobenzene)sulfonyl]pyrrolidine-2-carboxamide] | 13
O=C(NCc1cc(-c2ccc(OC(F)(F)F)cc2)ncn1)[C@@H]1C[C@@H](F)CN1S(=O)(=O)c1ccc(F)cc1 [Example 145, (2S,4R)-4-fluoro-1-(4-fluorophenylsulfonyl)-N-((6-(4-(trifluoromethoxy)phenyl)pyrimidin-4-yl)methyl)pyrrolidine-2-carboxamide] | 21
O=C(NCc1cc(-c2cnc(C(F)(F)F)cn2)c(F)cn1)[C@@H]1C[C@@H](F)CN1S(=O)(=O)c1ccc(F)cc1 [Example 102, (2S,4R)-4-fluoro-N-([5-fluoro-4-[5-(trifluoromethyl)pyrazin-2-yl]pyridin-2-yl]methyl)-1-[(4-fluorobenzene)sulfonyl]pyrrolidine-2-carboxamide] | 66
COc1cnc(-c2cnc(C(F)(F)F)nc2)cc1CNC(=O)[C@@H]1C[C@@H](F)CN1S(=O)(=O)c1ccc(F)cc1 [Example 196, (2S,4R)-4-fluoro-1-(4-fluorophenylsulfonyl)-N-((5-methoxy-2-(2-(trifluoromethyl)pyrimidin-5-yl)pyridin-4-yl)methyl)pyrrolidine-2-carboxamide] | 134
O=C(NCc1cc(-c2ccc(OC(F)(F)F)c(F)c2)ncn1)[C@@H]1C[C@@H](F)CN1S(=O)(=O)c1ccc(F)cc1 [Example 104, (2S,4R)-4-fluoro-N-([6-[3-fluoro-4-(trifluoromethoxy)phenyl]pyrimidin-4-yl]methyl)-1-[(4-fluorobenzene)sulfonyl]pyrrolidine-2-carboxamide] | 72
C[C@@]1(F)C[C@@H](C(=O)NCc2cc(F)cc(-c3ccc(C(F)(F)F)nn3)c2)N(S(=O)(=O)c2ccc(F)cc2)C1 [Example 45, (2S,4R)-4-fluoro-1-(4-fluorophenyl)sulfonyl-N-[[3-fluoro-5-[6-(trifluoromethyl)pyridazin-3-yl]phenyl]methyl]-4-methyl-pyrrolidine-2-carboxamide] | 24
O=C(NCc1cc(N2CCC(OC(F)(F)F)CC2)c(F)cn1)[C@@H]1C[C@@H](F)CN1S(=O)(=O)c1ccc(F)cc1 [Example 66, (2S,4R)-4-fluoro-1-(4-fluorophenyl)sulfonyl-N-[[5-fluoro-4-[4-(trifluoromethoxy)-1-piperidyl]-2-pyridyl]methyl]pyrrolidine-2-carboxamide] | 22
C[C@@]1(C(=O)NCc2cc(-c3ccc(C(F)(F)F)nc3)c(F)cn2)C[C@@H](F)CN1S(=O)(=O)c1ccc(F)cc1 [Example 126, (2S,4R)-4-fluoro-1-(4-fluorophenyl)sulfonyl-N-[[5-fluoro-4-[6-(trifluoromethyl)-3-pyridyl]-2-pyridyl]methyl]-2-methyl-pyrrolidine-2-carboxamide] | 25
O=C(NCc1cc(-c2ccc(C(F)(F)F)c(F)c2)ncn1)[C@@H]1C[C@@H](F)CN1S(=O)(=O)c1ccc(F)cc1 [Example 114, (2S,4R)-4-fluoro-N-([6-[3-fluoro-4-(trifluoromethyl)phenyl]pyrimidin-4-yl]methyl)-1-[(4-fluorobenzene)sulfonyl]pyrrolidine-2-carboxamide] | 26
CNc1nc(CNC(=O)[C@@H]2C[C@@H](F)CN2S(=O)(=O)c2ccc(F)cc2)cc(-c2ccc(C(F)(F)F)cc2)n1 [Example 105, (2S,4R)-4-fluoro-1-[(4-fluorobenzene)sulfonyl]-N-[[2-(methylamino)-6-[4-(trifluoromethyl)phenyl]pyrimidin-4-yl]methyl]pyrrolidine-2-carboxamide] | 128
O=C(NCc1cc(-c2ccc(C(F)(F)F)nc2)c(F)cn1)[C@@H]1C[C@@H](F)CN1S(=O)(=O)c1ccc(F)cc1 [Example 140, (2S,4R)-4-fluoro-N-((5′-fluoro-6-(trifluoromethyl)-3,4′-bipyridin-2′-yl)methyl)-1-(4-fluorophenylsulfonyl)pyrrolidine-2-carboxamide] | 20
COc1nn(-c2ccc(C(F)(F)F)cc2)cc1CNC(=O)[C@@H]1C[C@@H](F)CN1S(=O)(=O)c1ccc(F)cc1 [Example 135, (2S,4R)-4-fluoro-1-[(4-fluorobenzene)sulfonyl]-N-([3-methoxy-1-[4-(trifluoromethyl)phenyl]-1H-pyrazol-4-yl]methyl)pyrrolidine-2-carboxamide] | 11
O=C(NCc1cc(-c2ccc(C(F)(F)F)nn2)ccc1F)[C@@H]1C[C@@H](F)CN1S(=O)(=O)c1ccc(F)cc1 [Example 163, (2S,4R)-4-fluoro-N-(2-fluoro-5-(6-(trifluoromethyl)pyridazin-3-yl)benzyl)-1-((4-fluorophenyl)sulfonyl)pyrrolidine-2-carboxamide] | 43
CNc1nc(C(F)(F)F)ccc1-c1cc(CNC(=O)[C@@H]2C[C@@H](F)CN2S(=O)(=O)c2ccc(F)cc2)ccn1 [Example 179, (2S,4R)-4-fluoro-1-(4-fluorophenyl)sulfonyl-N-[[2-[2-(methylamino)-6-(trifluoromethyl)-3-pyridyl]-4-pyridyl]methyl]pyrrolidine-2-carboxamide] | 62
O=C(NCc1cc(-c2ccc(C(F)(F)F)nc2)ncn1)[C@@H]1C[C@]2(CN1S(=O)(=O)c1ccc(F)cc1)CC2(F)F (single isomer, unassigned) [Example 124] | 113
(2S,4R)-4-fluoro-N-[[5-fluoro-4-[5-fluoro-6-(trifluoromethyl)-3-pyridyl]-2-pyridyl]methyl]-1-(4-fluorophenyl)sulfonyl-pyrrolidine-2-carboxamide [Example 65] | 40
O=C(NCc1cc(Cl)nc(-c2ccc(C(F)(F)F)nc2)c1)[C@@H]1C[C@@H](F)CN1S(=O)(=O)c1ccc(F)cc1 [Example 84, (2S,4R)—N-[[2-chloro-6-[6-(trifluoromethyl)-3-pyridyl]-4-pyridyl]methyl]-4-fluoro-1-(4-fluorophenyl)sulfonyl-pyrrolidine-2-carboxamide] | 14
O=C(NCc1cc(-c2ccc(C(F)F)cc2)ncn1)[C@@H]1[C@@H](F)CCN1S(=O)(=O)c1ccc(F)cc1 [Example 55, (2R,3S)—N-[[6-[4-(difluoromethyl)phenyl]pyrimidin-4-yl]methyl]-3-fluoro-1-(4-fluorophenyl)sulfonyl-pyrrolidine-2-carboxamide] | 33
O=C(NCc1ccc(F)c(-c2cnc(C(F)(F)F)cn2)c1)[C@@H]1[C@@H](F)CCN1S(=O)(=O)c1ccc(F)cc1 [Example 97, (2R,3S)-3-fluoro-N-([4-fluoro-3-[5-(trifluoromethyl)pyrazin-2-yl]phenyl]methyl)-1-[(4-fluorobenzene)sulfonyl]pyrrolidine-2-carboxamide] | 24
COCCOc1cc(-c2ccc(C(F)(F)F)nc2)cc(CNC(=O)[C@@H]2C[C@@H](F)CN2S(=O)(=O)c2ccc(F)cc2)n1 [Example 170, (2S,4R)-4-fluoro-1-(4-fluorophenylsulfonyl)-N-((6′-(2-methoxyethoxy)-6-(trifluoromethyl)-3,4′-bipyridin-2′-yl)methyl)pyrrolidine-2-carboxamide] | 89
COc1nn(-c2cnc(C(F)(F)F)nc2)cc1CNC(=O)[C@@H]1C[C@@H](F)CN1S(=O)(=O)c1ccc(F)cc1 [Example 132, (2S,4R)-4-fluoro-1-[(4-fluorobenzene)sulfonyl]-N-([3-methoxy-1-[2-(trifluoromethyl)pyrimidin-5-yl]-1H-pyrazol-4-yl]methyl)pyrrolidine-2-carboxamide] | 126
N#Cc1ccc(-c2cnc(C(F)(F)F)nc2)cc1CNC(=O)[C@@H]1[C@H]2C[C@H]2CN1S(=O)(=O)c1ccc(F)cc1 [Example 176, (1S,2S,5R)—N-(2-cyano-5-(2-(trifluoromethyl)pyrimidin-5-yl)benzyl)-3-((4-fluorophenyl)sulfonyl)-3-azabicyclo[3.1.0]hexane-2-carboxamide] | 8
